The results in this text go back to patent US8999383B2, “Compositions of GnRH related compounds and processes of preparation” (Merrion Research III Limited, priority 2008, dated 2015).

Non-standard residues stand in square brackets, D forms with d. Residues, ends and D or L forms follow the SMILES beside them. dPhe(4-NH2) = Nc1ccc(C[C@@H](N)C(=O)O)cc1; dPhe(4-Cl) = N[C@H](Cc1ccc(Cl)cc1)C(=O)O; Phe(4-NH2) = Nc1ccc(C[C@H](N)C(=O)O)cc1; d2Nal = N[C@H](Cc1ccc2ccccc2c1)C(=O)O; Lys(iPr) = CC(C)NCCCC[C@H](N)C(=O)O; d3Pal = N[C@H](Cc1cccnc1)C(=O)O

This series can be described thus: Gelation of acyline in pH 6.8 buffer with sodium caprate and Tween 80 (filtration, reverse phase HPLC). Type of series: physicochemical. On the procedure: Different concentrations of acyline composition are prepared by adding acyline to pH 6.8 buffer solution either at room temperature or 37° C. All acyline solutions contain 0.6 mg/mL sodium caprate (sodium caprate is referred as C10 in the figures). All samples are centrifuged and filtered prior to analysis. Samples are analyzed by reverse phase HPLC with UV detection. 10 mg acyline is transferred into […] volumetric flask. A pH 6.8 buffer solution is preheated to 37° C. Then, 100 mL pre-heated buffer solution and 0.6 mg/mL sodium caprate is added to the flask to prepare a 0.1 mg/mL acyline sample. In a similar manner, Tween 80 is added to prepare a 0.1 mg/mL acyline solution with 1% Tween 80. Samples are shaken in a temperature controlled water bath at 37° C. 5 mL samples are taken at 1, 5, 10, 15, 20, 30 and 120 minutes after mixing acyline with the buffer solution. Samples are filtered immediately through 0.45 μm filters and the first 3 mL is discarded. Filtered samples are analyzed, undiluted, by reverse phase HPLC with UV detection. All samples are prepared in duplicate and the concentration was obtained for the analysis from the mean of the duplicates. The result of comparison of 1% and 0% Tween 80 at 0.1 mg/mL acyline sample is graphically recorded in FIG. 5. […] A similar experimental procedure as Example 4 is used to prepare acyline sample for example 5. The result of comparison of 5 mg/mL, 1 mg/mL, 0.1 mg/mL and 1% Tween in phosphate buffer containing 0.6 mg/mL of sodium caprate and 0.1 mg/mL acyline is graphically recorded in FIG. 6. […] A similar experimental procedure as Example 4 is used to prepare acyline sample for example 6. The result of comparison of 1% and 1 mg/mL Tween 80 in 0.1 and 0.01 mg/mL acyline sample is graphically recorded in FIG. 7. […] A similar experimental procedure as Example 4 is used to prepare acyline sample for example 7. The result of comparison of 0.01 mg/mL acyline samples having 0.1%, 0.5% and 1% Tween 80 is graphically recorded in FIG. 8.

In the case of `CC(=O)Nc1ccc(C[C@H](NC(=O)[C@H](CO)NC(=O)[C@@H](Cc2cccnc2)NC(=O)[C@@H](Cc2ccc(Cl)cc2)NC(=O)[C@@H](Cc2ccc3ccccc3c2)NC(C)=O)C(=O)N[C@H](Cc2ccc(NC(C)=O)cc2)C(=O)N[C@@H](CC(C)C)C(=O)N[C@@H](CCCCNC(C)C)C(=O)N2CCC[C@H]2C(=O)N[C@H](C)C(N)=O)cc1` [acyline, Ac-D2Nal-D4Cpa-D3Pal-Ser4Aph(Ac)-D4Aph(Ac)-Leu-ILys-Pro-DAla-NH2] (Ac-[d2Nal][dPhe(4-Cl)][d3Pal]S[Phe(4-NH2)](Ac)[dPhe(4-NH2)](Ac)L[Lys(iPr)]P[dA]-NH2), the gelation of acyline result by setting is: (0.01 mg/mL acyline sample, 1% Tween 80 (versus 0.1% and 0.5%)) “significantly reduces the gelation”; (0.1 mg/mL acyline, pH 6.8 buffer, 37° C., 0.6 mg/mL sodium caprate alone (below CMC), 0% Tween 80) “insufficient to reduce the gelation”; (0.1 mg/mL and 0.01 mg/mL acyline sample, 1% Tween 80) “reduces gelation”.
